Reference: patent publication US9788539B2, “Platelet protection solution having beta-galactosidase and sialidase inhibitors” (Velico Medical, Inc., priority 2011, dated 2017)
“Also recorded” adds a separate entry of the source.

Assays:
[1] = system: platelet GPIbα and GPV receptor surface expression; assay: Recombinant TACE-mediated GPIbα and GPV shedding from platelets; assay type: cell-based, mouse; conditions: GPIbα and GPV; GM6001 100 μM on sialidase-treated platelets
mouse platelets [2] = assay: Mouse platelets stored in 30% plasma and 70% INTERSOL solution at RT for 48 h, flow cytometry; assay type: cell-based
Method: The supernatant, containing platelet rich plasma, buffy coat, and some RBC, was removed and centrifuged at 300×g for 6 min to obtain platelet rich plasma (PRP). […] About 70% of the supernatant (105 μL) was removed from each tube, and replaced with equal volume of […]® solution. […] The volumes in tubes lacking one or both additives were evened out with PBS. The platelet suspensions were stored at RT for 48 h on a shaker and analyzed by flow cytometry.

[3] = system: Serratia marcescens strain (ATCC #43862); assay: Planktonic growth of S. marcescens in 96-well PVC plate; assay type: cell-based; conditions: 1 mM DANA, 48 h, 30% plasma in PAS, 30% PC in PAS or 100% plasma
Method: Serratia marcescens strain (ATCC #43862) was purchased from American Type Culture Collection (Manassas, Va.). Cells were grown in brain-heart infusion broth (ATCC media 3) at 37° C. and 250 rpm. Frozen stocks were prepared from overnight culture and stored at −80° C. in brain-heart infusion broth containing 15% glycerol by volume. To prepare the seed culture, the cryostock of Serratia marcescens was inoculated into 3 mL of brain-heart infusion broth with a cotton swab and incubated at 37° C. with agitation at 250 rpm for 6 h. The cell density was determined at 600 nm on a dual wavelength spectrometer and diluted to 0.5 McFarland Standard (1.5×10^8 cells/mL) with sterile PBS. Ten μL of the diluted culture was inoculated into 140 μL of 30% plasma in PAS, 30% PC by volume in PAS or 100% plasma, supplemented with or without 1 mM DANA, in the wells of 96-well PVC plates (Corning Biosciences). For each media, six replicates were performed. Ten μL of PBS was inoculated into the control wells. The microtiter plates were then sealed with sterile porous film (VWR) and placed on a platform shaker. The cultures were incubated for 48 h with gentle shaking (˜100 rpm). […] The crystal violet retained by the biofilm was eluted with 200 μL of dimethyl sulfoxide (DMSO) or 30% acetic acid, and read at 595 nm.

mouse platelets [4] = assay: Surface receptor loss of mouse platelets stored at room temperature; assay type: cell-based; conditions: DANA added during storage
mouse platelets [5] = assay: Sialidase (neuraminidase)-induced loss of platelet surface receptors, flow cytometry and immunoblot; assay type: cell-based; conditions: mouse platelets, flow cytometry and Western blot
human platelets [6] = assay: Human platelets stored in plasma at RT, P-selectin surface expression (CD62P-FITC); assay type: cell-based; conditions: stored in plasma with DANA
human platelets [7] = assay: Human platelets stored in plasma at RT, size and density by FSC/SSC; assay type: cell-based; conditions: 72 h at RT in plasma
human platelets [8] = assay: Human platelets stored in 30% plasma and 70% PASa at RT, flow cytometry and pH; assay type: cell-based; conditions: 7 days at RT
Method: Human platelets were obtained as described in Example 13. The platelet pellet was resuspended in PPP, ⅕ volumes of original PRP, and aliquoted into wells of a 96-well microtiter plate (60 μL per well). PAS (designated as PASa), containing 7.15 mM Na2HPO4, 2.24 mM NaH2PO4, 10 mM sodium citrate, 30 mM sodium acetate, 79.2 mM NaCl, 5.0 mM KCl, and 1.5 mM MgCl2, was added to corresponding wells at 140 μL per well, DANA was added to 0, 0.1, and 0.5 mM from 10 or 100 mM stock in PBS to proper wells. The sample volumes in the wells were evened out with PBS. The plate was then covered with a gas-permeable film and placed on a shaker. Platelet size and density were measured by forward (FSC) and side scatter (SSC) on a FACSCalibur flow cytometer (BD) at Day 7, and pH was checked at Day 9.

mouse platelets [9] = assay: Sialidase-induced β-galactose exposure on platelets, lectin binding by flow cytometry; assay type: cell-based; conditions: mouse platelets, 5 mU α2-3,6,8,9-sialidase
mouse platelets [10] = assay: In vivo survival of biotinylated platelets after injection of sialidase inhibitor; conditions: mice injected with 100 mM DANA vs PBS
Method: These studies then addressed whether inhibition of sialidase activity in vivo has an effect on platelet survival. […] Mice were injected with 100 mM DANA or PBS (phosphate buffered saline) as a control, after in vivo platelet biotinylation.

[11] = system: Serratia marcescens strain (ATCC #43862); assay: Biofilm formation of S. marcescens, crystal violet; assay type: cell-based; conditions: 1 mM DANA, 48 h, crystal violet A595 nm
Method: To prepare the seed culture, the cryostock of Serratia marcescens was inoculated into 3 mL of brain-heart infusion broth with a cotton swab and incubated at 37° C. with agitation at 250 rpm for 6 h. The cell density was determined at 600 nm on a dual wavelength spectrometer and diluted to 0.5 McFarland Standard (1.5×10^8 cells/mL) with sterile PBS. Ten μL of the diluted culture was inoculated into 140 μL of 30% plasma in PAS, 30% PC by volume in PAS or 100% plasma, supplemented with or without 1 mM DANA, in the wells of 96-well PVC plates (Corning Biosciences). For each media, six replicates were performed. Ten μL of PBS was inoculated into the control wells. The microtiter plates were then sealed with sterile porous film (VWR) and placed on a platform shaker. The cultures were incubated for 48 h with gentle shaking (˜100 rpm). The cultures were gently mixed and transferred to a polystyrene plate for the determination of planktonic cell density at OD 595 nm. The wells on the original microtiter plates were washed with 3×200 μL of PBS, air dried, stained for 15 min with an aqueous solution of 0.1% (wt/vol) crystal violet, rinsed with water, and air dried for 1 hr. The crystal violet retained by the biofilm was eluted with 200 μL of dimethyl sulfoxide (DMSO) or 30% acetic acid, and read at 595 nm.

For `CC(=O)NC1C(O)C=C(C(=O)O)OC1C(O)C(O)CO` (centres unmarked) [DANA], which “receptor shedding by rTACE in presence of inhibitor” value [1] is on record?
The value was “completely prevented”.

What about the “platelet events within the platelet gate” value (mouse platelets [2]; 48 h at RT, DANA 1 mM and/or glucose 10 mM (57% in INTERSOL alone)) of the same molecule?
The value was “over 80%”.

And the “state of platelet population by forward and side scatter” value (mouse platelets [2]; compared with glucose alone)?
Its value is “more resting platelet population”.

And the “bacterial growth (planktonic cell density)” value [3]?
The value was “inhibited the bacterial growth under all conditions”.

And the “GPIbα and GPV receptor expression of room temperature stored mouse platelets” value (mouse platelets [4])?
The value was “preserved receptors expression; also recorded: inhibited”.

What about the “loss (shedding) of platelet GPIbα and GPV induced by sialidase/neuraminidase, in presence of inhibitor” value (mouse platelets [5]) of the same molecule?
The value was “completely prevented this loss; also recorded: prevented all GPIbα and GPV shedding; also recorded: inhibits the loss of platelet GPIbα”.

And the “exposure of P-selectin” value (human platelets [6])?
Its value is “significantly prevented the exposure of P-selectin”.

What about the α-granule release (human platelets [6]) of the same molecule?
The α-granule release was “inhibited α-granule release”.

What about the “platelet shape by side and forward scatter” value (human platelets [7]; 0.5 mM DANA) of the same molecule?
The value was “visible improvement of the platelet shape”.

What about the “mean fluorescence intensity (MFI) of platelet count/SSC histogram” value (human platelets [7]; with DANA vs without) of the same molecule?
The value was “increased”.

And the “platelet microparticles (G2)” value (human platelets [8]; 0.1 mM DANA (41.5% without))?
The value was 23.95%.

And the “total acquired events gated as platelets (G1)” value (human platelets [8]; 0.1 mM DANA (55% without))?
Its value is “over 70%”.

What about the “platelet microparticles (G2)” value (human platelets [8]; 0.5 mM DANA) of the same molecule?
The value was 13.52%.

What about the “total acquired events gated as platelets (G1)” value (human platelets [8]; 0.5 mM DANA) of the same molecule?
Its value is 81.6%.

And the “β-galactose exposure induced by sialidase in presence of inhibitor” value (mouse platelets [9])?
Its value is “completely inhibited; also recorded: inhibits the exposure of β-galactose”.

What about the “survival of biotinylated platelets in vivo” value (mouse platelets [10]) of the same molecule?
The value was “increases mouse platelet life span in vivo; also recorded: increases the survival”.

What about the formation of biofilm [11] of the same molecule?
Its formation of biofilm is “negatively impacted”.
